According to patent US12145927B2 (BRISTOL-MYERS SQUIBB COMPANY, priority 2018, dated 2024):
pIC50: −log10 of the molar value. “And” between values parts separate entries of the source, which are not always exact repeats. Equal entries are not always repeated.

Biological target: T1, human IDO1 (Homo sapiens, UniProt P14902)
T1 construct: expressed in transfected cells
Experiment: IDO inhibition assay in human IDO1/HEK293 cells (IDO1 HEK Human)
Format: cell-based
Details: HEK293 cells stably expressing human IDO1; 20 hours incubation; absorbance at 490 nm after Ehrlich reagent
In short: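 Kynurenine output of stably IDO1-transfected HEK293 cells was measured by absorbance at 490 nm after mixing supernatant with 0.2% Ehrlich reagent, following TCA stop (0.2% final, 50° C., 30 min). Cells were incubated 20 hours with compound. Inhibition was scaled between DMSO and 500 nM reference standard.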

T1 sequence (P14902 whole entry): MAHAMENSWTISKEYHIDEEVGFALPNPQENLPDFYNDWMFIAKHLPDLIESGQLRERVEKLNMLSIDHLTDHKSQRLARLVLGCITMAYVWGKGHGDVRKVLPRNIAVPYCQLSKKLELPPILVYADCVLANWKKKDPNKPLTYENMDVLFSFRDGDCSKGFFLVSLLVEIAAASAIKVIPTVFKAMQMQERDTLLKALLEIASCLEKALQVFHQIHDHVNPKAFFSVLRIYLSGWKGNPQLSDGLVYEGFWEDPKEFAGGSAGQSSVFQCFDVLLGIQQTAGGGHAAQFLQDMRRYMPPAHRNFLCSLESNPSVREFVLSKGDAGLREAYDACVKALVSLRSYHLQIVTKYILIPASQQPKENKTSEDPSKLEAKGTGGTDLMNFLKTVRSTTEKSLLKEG

pIC50	Compound
7.67	Cc1ccc(CC(=O)Nc2cc(-c3ccccc3-c3nnn[nH]3)cc3c2OCCCC3c2ccccc2)cc1 (single isomer, unassigned) [Example 2-3, N-(7-(2-(1H-tetrazol-5-yl)phenyl)-5-phenyl-2,3,4,5-tetrahydrobenzo[b]oxepin-9-yl)-2-(p-tolyl)acetamide]
7.45	Cc1ccc(NC(=O)Nc2cc(-c3ccccc3-c3nnn[nH]3)cc3c2OCCCC3c2ccccc2)nc1 (single isomer, unassigned) [Example 3, 1-(7-(2-(1H-tetrazol-5-yl)phenyl)-5-phenyl-2,3,4,5-tetrahydrobenzo[b]oxepin-9-yl)-3-(5-methylpyridin-2-yl)urea]
6.01	Cc1ccc(NC(=O)Nc2cc(-c3ccccc3C(=O)O)cc3c2OCCCC3c2ccccc2)cc1 (single isomer, unassigned) [Example 8-2, 2-(5-phenyl-9-(3-(p-tolyl)ureido)-2,3,4,5-tetrahydrobenzo[b]oxepin-7-yl)benzoic acid]
7.74	CCC(C)C1CCCOc2c(NC(=O)Nc3ccc(C)cc3)cc(-c3ccccc3-c3nnn[nH]3)cc21 (single isomer, unassigned) [Example 29, 1-(7-(2-(1H-tetrazol-5-yl)phenyl)-5-(sec-butyl)-2,3,4,5-tetrahydrobenzo[b]oxepin-9-yl)-3-(p-tolyl)urea]
8.92	Cc1ccc(NC(=O)Nc2cc(-c3ccccc3-c3nc(=O)o[nH]3)cc3c2OCCCC3C2CC2)cc1 (single isomer, unassigned) [Example 33-1, 1-(5-cyclopropyl-7-(2-(5-oxo-2,5-dihydro-1,2,4-oxadiazol-3-yl)phenyl)-2,3,4,5-tetrahydrobenzo[b]oxepin-9-yl)-3-(p-tolyl)urea]
8.10	Cc1ccc(NC(=O)Nc2cc(-c3ccccc3-c3nc(=O)o[nH]3)cc3c2OCCCC3C2CC2)cc1 (single isomer, unassigned) [Example 33-2, 1-(5-cyclopropyl-7-(2-(5-oxo-2,5-dihydro-1,2,4-oxadiazol-3-yl)phenyl)-2,3,4,5-tetrahydrobenzo[b]oxepin-9-yl)-3-(p-tolyl)urea]
7.18	Cc1ccc(-c2nnn[nH]2)c(-c2cc(NC(=O)Nc3ccccc3F)c3c(c2)C(C2CC2)CCCO3)c1 (single isomer, unassigned) [Example 34-1]
7.52	Cc1ccc(NC(=O)Nc2cc(-c3ccccc3-c3nnn[nH]3)cc3c2OCCC(C)C3c2ccccc2)cc1 (single isomer, unassigned) [Example 43, 1-(7-(2-(1H-tetrazol-5-yl)phenyl)-4-methyl-5-phenyl-2,3,4,5-tetrahydrobenzo[b]oxepin-9-yl)-3-(p-tolyl)urea]
8.77	Cc1ccc(NC(=O)Nc2cc(-c3ccccc3-c3nnn[nH]3)cc3c2OCCC(C)C3c2ccccc2)cc1 (single isomer, unassigned) [Example 44, 1-(7-(2-(1H-tetrazol-5-yl)phenyl)-4-methyl-5-phenyl-2,3,4,5-tetrahydrobenzo[b]oxepin-9-yl)-3-(p-tolyl)urea]
6.97 and 6.54	Cc1ccc(NC(=O)Nc2cc(-c3ccccc3-c3nnn[nH]3)cc3c2OCCC(C)C3c2ccccc2)cc1 (single isomer, unassigned) [Example 45, 1-(7-(2-(1H-tetrazol-5-yl)phenyl)-4-methyl-5-phenyl-2,3,4,5-tetrahydrobenzo[b]oxepin-9-yl)-3-(p-tolyl)urea]
9.11	Cc1ccc(NC(=O)Nc2cc(-c3ccccc3-c3nnn[nH]3)cc3c2OCCC(C)C3c2ccccc2)cc1 (single isomer, unassigned) [Example 46, 1-(7-(2-(1H-tetrazol-5-yl)phenyl)-4-methyl-5-phenyl-2,3,4,5-tetrahydrobenzo[b]oxepin-9-yl)-3-(p-tolyl)urea]
6.55	Cc1ccc(CC(=O)Nc2cc(-c3ccccc3-c3nnn[nH]3)cc3c2OCCC(C)C3c2ccccc2)cc1 (single isomer, unassigned) [Example 47, N-(7-(2-(1H-tetrazol-5-yl)phenyl)-4-methyl-5-phenyl-2,3,4,5-tetrahydrobenzo[b]oxepin-9-yl)-2-(p-tolyl)acetamide]
7.90	Cc1ccc(CC(=O)Nc2cc(-c3ccccc3-c3nnn[nH]3)cc3c2OCCC(C)C3c2ccccc2)cc1 (single isomer, unassigned) [Example 48, N-(7-(2-(1H-tetrazol-5-yl)phenyl)-4-methyl-5-phenyl-2,3,4,5-tetrahydrobenzo[b]oxepin-9-yl)-2-(p-tolyl)acetamide]
8.42	CC1CCOc2c(Nc3nc4ccccc4o3)cc(-c3ccccc3-c3nnn[nH]3)cc2C1c1ccccc1 (single isomer, unassigned) [Example 51, N-(7-(2-(1H-tetrazol-5-yl)phenyl)-4-methyl-5-phenyl-2,3,4,5-tetrahydrobenzo[b]oxepin-9-yl)benzo[d]oxazol-2-amine]
6.30	CC1CCOc2c(Nc3nc4ccccc4[nH]3)cc(-c3ccccc3-c3nnn[nH]3)cc2C1c1ccccc1 (single isomer, unassigned) [Example 52, N-(7-(2-(1H-tetrazol-5-yl)phenyl)-4-methyl-5-phenyl-2,3,4,5-tetrahydrobenzo[b]oxepin-9-yl)-1H-benzo[d]imidazol-2-amine]
5.87	CC(=O)NS(=O)(=O)c1ccccc1-c1cc(NC(=O)Nc2ccc(C)cc2)c2c(c1)C(c1ccccc1)CCCO2 (single isomer, unassigned) [Example 58, N-((2-(5-phenyl-9-(3′-(p-tolyl)ureido)-2,3,4,5-tetrahydrobenzo[b]oxepin-7-yl)phenyl)sulfonyl)acetamide]
5.64	Cc1ccc(NC(=O)Nc2cc(-c3ccccc3S(=O)(=O)NC(=O)c3ccccc3)cc3c2OCCCC3c2ccccc2)cc1 (single isomer, unassigned) [Example 61, N-((2-(5-phenyl-9-(3-(p-tolyl)ureido)-2,3,4,5-tetrahydrobenzo[b]oxepin-7-yl)phenyl)sulfonyl)benzamide]
7.84	Cc1ccc(NC(=O)Nc2cc(-c3cc(C)ccc3C(=O)O)cc3c2OCCCC3c2ccccc2)cc1 (single isomer, unassigned) [Example 68, 4-methyl-2-(5-phenyl-9-(3-(p-tolyl)ureido)-2,3,4,5-tetrahydrobenzo[b]oxepin-7-yl)benzoic acid]
8.51	Cc1nc2ccc(Nc3cc(-c4ccccc4-c4nnn[nH]4)cc4c3OCCCC4c3ccccc3)cc2s1 (single isomer, unassigned) [Example 71, N-(7-(2-(1H-tetrazol-5-yl)phenyl)-5-phenyl-2,3,4,5-tetrahydrobenzo[b]oxepin-9-yl)-2-methylbenzo[d]thiazol-6-amine]
7.73	Cc1ccc(-c2nnn[nH]2)c(-c2cc(Nc3ccc(Cl)cc3F)c3c(c2)C(c2ccccc2)CCCO3)c1 (single isomer, unassigned) [Example 75, N-(4-chloro-2-fluorophenyl)-7-(5-methyl-2-(1H-tetrazol-5-yl)phenyl)-5-phenyl-2,3,4,5-tetrahydrobenzo[b]oxepin-9-amine]
8.08	Cc1ccc(-c2nnn[nH]2)c(-c2cc(Nc3ccc(Cl)c(F)c3)c3c(c2)C(c2ccccc2)CCCO3)c1 (single isomer, unassigned) [Example 76, N-(4-chloro-3-fluorophenyl)-7-(5-methyl-2-(1H-tetrazol-5-yl)phenyl)-5-phenyl-2,3,4,5-tetrahydrobenzo[b]oxepin-9-amine]
8.07	Cc1ccc(-c2nnn[nH]2)c(-c2cc(Nc3ccc(Cl)cc3)c3c(c2)C(c2ccccc2)CCCO3)c1 (single isomer, unassigned) [Example 78, N-(4-chlorophenyl)-7-(5-methyl-2-(1H-tetrazol-5-yl)phenyl)-5-phenyl-2,3,4,5-tetrahydrobenzo[b]oxepin-9-amine]
7.47	Cc1ccc(-c2nnn[nH]2)c(-c2cc(Nc3ccc(OC(F)F)cc3)c3c(c2)C(c2ccccc2)CCCO3)c1 (single isomer, unassigned) [Example 79, N-(4-(difluoromethoxy)phenyl)-7-(5-methyl-2-(1H-tetrazol-5-yl)phenyl)-5-phenyl-2,3,4,5-tetrahydrobenzo[b]oxepin-9-amine]
5.60	c1ccc(C2CCCOc3c(Nc4ccnc5ccnn45)cc(-c4ccccc4-c4nnn[nH]4)cc32)cc1 (single isomer, unassigned) [Example 81, N-(7-(2-(1H-tetrazol-5-yl)phenyl)-5-phenyl-2,3,4,5-tetrahydrobenzo[b]oxepin-9-yl) pyrazolo[1,5-a]pyrimidin-7-amine]
7.76	c1ccc(C2CCCOc3c(Nc4ccc5ccccc5n4)cc(-c4ccccc4-c4nnn[nH]4)cc32)cc1 (single isomer, unassigned) [Example 83, N-(7-(2-(1H-tetrazol-5-yl)phenyl)-5-phenyl-2,3,4,5-tetrahydrobenzo[b]oxepin-9-yl) quinolin-2-amine]
6.98	C=C[C@H]1Oc2c(NC(=O)Nc3ccc(C)cc3)cc(-c3ccccc3-c3nnn[nH]3)cc2[C@@H]1c1ccccc1 (single isomer, unassigned) [Example 88, 1-((trans)-5-(2-(1H-tetrazol-5-yl)phenyl)-3-phenyl-2-vinyl-2,3-dihydrobenzofuran-7-yl)-3-(p-tolyl)urea]
7.89	C=C[C@@H]1Oc2c(NC(=O)Nc3ccc(C)cc3)cc(-c3ccccc3-c3nnn[nH]3)cc2[C@H]1c1ccccc1 (single isomer, unassigned) [Example 89, 1-((trans)-5-(2-(1H-tetrazol-5-yl)phenyl)-3-phenyl-2-vinyl-2,3-dihydrobenzofuran-7-yl)-3-(p-tolyl)urea]
7.68	C=C[C@H]1Oc2c(NC(=O)Nc3ccc(C)cc3)cc(-c3ccccc3-c3nnn[nH]3)cc2[C@@H]1CCC(F)(F)F (single isomer, unassigned) [Example 100, 1-((trans)-5-(2-(1H-tetrazol-5-yl)phenyl)-3-(3,3,3-trifluoropropyl)-2-vinyl-2,3-dihydrobenzofuran-7-yl)-3-(p-tolyl)urea]
